Assay [1] deals with Matrix metalloproteinase-9 (Homo sapiens, UniProt P14780).
Assay [2] has as its target Matrix metalloproteinase-14 (Homo sapiens, UniProt P50281).

Chain of Matrix metalloproteinase-9 (P14780 whole entry): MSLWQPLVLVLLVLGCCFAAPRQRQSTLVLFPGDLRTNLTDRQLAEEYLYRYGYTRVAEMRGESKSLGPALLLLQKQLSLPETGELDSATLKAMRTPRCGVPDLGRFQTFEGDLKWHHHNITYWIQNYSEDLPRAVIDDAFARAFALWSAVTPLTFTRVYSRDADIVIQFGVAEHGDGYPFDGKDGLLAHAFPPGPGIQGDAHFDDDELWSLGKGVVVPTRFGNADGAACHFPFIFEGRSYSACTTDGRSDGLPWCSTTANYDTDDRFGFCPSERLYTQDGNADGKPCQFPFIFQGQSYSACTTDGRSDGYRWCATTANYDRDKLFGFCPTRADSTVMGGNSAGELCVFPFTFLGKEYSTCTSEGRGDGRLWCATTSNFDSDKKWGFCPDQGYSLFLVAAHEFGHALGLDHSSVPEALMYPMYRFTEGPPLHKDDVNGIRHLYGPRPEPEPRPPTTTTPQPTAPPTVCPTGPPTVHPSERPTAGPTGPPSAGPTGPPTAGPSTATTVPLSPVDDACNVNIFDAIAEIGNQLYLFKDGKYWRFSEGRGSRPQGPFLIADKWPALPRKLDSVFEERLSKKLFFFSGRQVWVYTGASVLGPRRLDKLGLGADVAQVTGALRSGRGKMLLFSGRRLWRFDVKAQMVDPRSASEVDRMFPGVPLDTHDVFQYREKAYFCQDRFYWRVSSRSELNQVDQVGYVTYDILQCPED

What is called IC50 is the concentration that inhibits the measured activity by half. Read a low IC50 as greater potency. For the molecule `Cc1cc(CCC[C@H](CC(=O)NO)C(=O)N[C@H](C(=O)N[C@H](C)c2ccccc2)C(C)(C)C)ccc1-c1ccccc1`, the values for the IC50 in assay [1] and in assay [2] were 840 nM and 1900 nM, respectively.

The record behind these values is ChEMBL document CHEMBL1134203, “Discovery of potent and selective succinyl hydroxamate inhibitors of matrix metalloprotease-3 (stromelysin-1)” (Bioorg Med Chem Lett, 2001).
